Reference: patent US11827703B2, “Compositions and methods related to anti-CD19 antibody drug conjugates” (LegoChem Biosciences, Inc., priority 2018, dated 2023)
Positions count from the first letter of the chain named.

Key:
SU-DHL-6 = assay: Anti-proliferation assay (CellTiter-Glo), SU-DHL-6; assay type: cell-based, human; conditions: SU-DHL-6, 96 hour treatment
Protocol: (§1) Commercially available 6 B cell lymphoma cancer cell lines DOHH-2 (DSMZ, #ACC 47), NALM-6 (DSMZ, #ACC 58), Ramos (ECACC, #85030802), SU-DHL-6 (ATCC, #CRL-2959), WSU-DLCL2 (DSMZ, #ACC 575) and WSU-NHL (DSMZ, #ACC 58) were used. SG2057 was used as the drug, free toxin. Each of the cancer cell lines was seeded in a 96-well plate at 2000 to 10000 per well for the 96 hour treatment group, incubated for 2 hours, and then treated with drug and ADC at a concentration of from 0.00025 to 100 nM (5-fold times serial dilutions). After 96 hours, the number of living cells was quantified using CellTiter-Glo Luminescent cell viability assay (Promega-G7573). Inhibition rate (IR) of the drug and ADC were determined by the following formula: IR (%)=(1−(RLU compound−RLU blank)/(RLU control−RLU blank))*100%. The inhibitions of different dose of samples were calculated in Excel file, and then were used to plot inhibition curve and evaluate related parameters, such as Bottom (%), Top (%) and Relative IC50. The IC50 for each experiment and treatment was calculated (See table below).

WSU-DLCL2 = assay: Anti-proliferation assay (CellTiter-Glo), WSU-DLCL2; assay type: cell-based; conditions: WSU-DLCL2, 96 hour treatment
Protocol: as §1

Ramos = assay: Anti-proliferation assay (CellTiter-Glo), Ramos; assay type: cell-based, human; conditions: 96 hour treatment
Protocol: as §1

WSU-NHL = assay: Anti-proliferation assay (CellTiter-Glo), WSU-NHL; assay type: cell-based; conditions: 96 hour treatment
Protocol: as §1

NALM6 = assay: Anti-proliferation assay (CellTiter-Glo), NALM6; assay type: cell-based, human; conditions: NALM6, 96 hour treatment
Protocol: as §1

DOHH2 = assay: Anti-proliferation assay (CellTiter-Glo), DOHH2; assay type: cell-based; conditions: DOHH2, 96 hour treatment
Protocol: as §1

[1] = tested on: Ramos Burkitt's lymphoma cells; assay: Ramos non-Hodgkin lymphoma xenograft model; conditions: Ramos s.c. xenograft, i.v. treatment
Protocol: Anti-tumor activity of anti-CD19 (9G8) Antibody Drug Conjugate was evaluated in immunodeficient CB-17 scid mice subcutaneously engrafted with Ramos Burkitt's lymphoma cells.
CB17-SCID mice (Charles River), aged 7 weeks, were implanted subcutaneously (s.c.) in the right flank with 5×10^6 Ramos cells (obtained from ATCC). Tumor volumes (calculated using the formula TV=(0.5×[length×width^2]) were measured by digital caliper 3 times a week and mice were recruited for treatment when tumor volumes reached 200-250 mm^3. Mice were assigned to different groups (see table below) in order to obtain homogeneous mean tumor volumes between cohorts (n=7-8 mice per group. Mean tumor volume: hIgG1 control 1 mg/kg, 1 inj.: 243 mm^3±26; anti-CD19 CaaX 1 mg/kg, 1 inj.: 233 mm^3±18; hIgG1 ADC 1 mg/kg, 1 inj.: 224 mm^3±20; anti CD19 ADC 0.33 mg/kg, 1 inj.: 242 mm^3±28; anti CD19 ADC 0.66 mg/kg, 1 inj.: 234 mm^3±23; anti CD19 ADC 1 mg/kg, 1 inj.: 234 mm^3±31; anti CD19 ADC 0.33 mg/kg 1 inj./week during 3 weeks: 251 mm^3±25; rituximab 6 mg/kg, 1 inj.: 242 mm^3±31). Single dose or multiple dose (only for cohort anti-CD19 ADC 0.33 mg/kg 1×/week, 3 weeks) treatments were injected i.v. in the tail vein. Mice were then monitored for body weight 3 times a week and for tumor growth 3 times a week until the endpoint of the experiment (tumor volume=1500 mm^3).

cynomolgus CD19 = assay: FACS binding to CHO cell line transfected with cynomolgus CD19; set-up: species or system cynomolgus monkey; conditions: transfected CHO cynoCD19 cells, 10 to 0.01 μg/mL
Protocol: The ability of the anti-CD19 antibodies to bind human and/or cynomolgus monkey CD19 was evaluated.
In particular, the human IgG1 5F5, 7F11, 9G8, F6, 7F1, and 10D8 anti-CD19 antibodies were evaluated for their abilities to bind a CHO cell line transfected with cynomolgus CD19 and a negative control cell line (CHO). All incubations were prepared in FACS buffer (PBS, BSA 2%) at 4° C. Fc receptors on B cells were blocked with 10% mouse serum. Four doses of hIgG1 were tested: 10, 1, 0.1 and 0.01 μg/mL.

[2] = tested on: human B lymphocyte cell lines: Raji, Ramos, Nalm6, Su-DHL6, Su-DHL4, and Mec2; assay: FACS binding to human B lymphocyte cell lines; conditions: comparison of cell lines
Protocol: The ability of various anti-CD19 antibodies of the disclosure to bind various human B lymphocyte cell lines was evaluated. In particular, the human IgG1 5F5, 7F11, 9G8, F6, 7F1, and 10D8 anti-CD19 antibodies were evaluated for their abilities to bind (i) six human B lymphocyte cell lines: Raji, Ramos, Nalm6, Su-DHL6, Su-DHL4, and Mec2, (ii) a CD19 silenced B cell line: Raji siRNA; and a negative cell line (Jurkat). All incubations were prepared in FACS buffer (PBS, BSA 2%) at 4° C. Fc receptors on B cells were blocked with 10% mouse serum. Four doses of hIgG1 were tested: 10, 1, 0.1 and 0.01 μg/mL. Cell surface bound hIgG1 were detected with a mouse anti-human IgG Fc-PE mAb.

With `C=C1C[C@H]2C=Nc3cc(OCCCCCOc4cc5c(cc4OC)C(=O)N4CC(=C)C[C@H]4C=N5)c(OC)cc3C(=O)N2C1` [Free dPBD (SG2057), SG2057] the IC50 (SU-DHL-6) was 50 pM, the IC50 (WSU-DLCL2) was 4 pM and the IC50 (Ramos) was 150 pM. The IC50 (WSU-NHL) was 13 pM, the IC50 (NALM6) was 3.5 pM and the IC50 (DOHH2) was 5.4 pM.

With rituximab the “mice reaching the tumor size endpoint (tumor volume=1500 mm^3)” value [1] was “four of seven mice reached the endpoint” and the “survival to day 70” value ([1]; rituximab 6 mg/kg single) was “three survived to day 70”.

B1: F6: anti-CD19 antibody, VH SEQ ID NO: 12, VL SEQ ID NO: 14 (antibody, V domains shown)
VH: EVQLVQSGAEVKKPGESLKISCKGSGYSFTSYWIGWVRQMPGKGLEWMGIIYPGDSDTRYSPSFQGQVTISADKSISTAYLQWSSLKASDTAMYYCARVWYYDFWSGADAFDIWGQGTLVTVSS
VL: EIVMTQSPATLSVSPGERATLSCRASQSVSSNLAWYQQKPGQAPRLLIYGASTRATGIPARFSGSGSGTEFTLTISSLQSEDFAVYYCQQGSLEAPQTFGQGTKVEIK
With B1 the “cross-reactivity with cynomolgus CD19” value (cynomolgus CD19) was “slightly cross-reactive”.

B2: 9G8: anti-CD19 antibody, VH SEQ ID NO: 6, VL SEQ ID NO: 10 (antibody, V domains shown)
VH: EVQLVQSGAEVKKPGESLKISCKGSGYSFTSYWIGWVRQMPGKGLEWMGIIYPGDSDTRYSPSFQGQVTISADKSISTAYLQWSSLKASDTAMYYCARGVSGIYNLHGFDIWGQGTLVTVSS
VL: DIQMTQSPSSLSASVGDRVTITCRASQSISSYLNWYQQKPGKAPKLLIYAASSLQSGVPSRFSGSGSGTDFTLTISSLQPEDFATYYCQQGRFGSPFTFGQGTKVEIK
In the case of B2, the “cross-reactivity with cynomolgus CD19” value (cynomolgus CD19) is reported as “clearly cross-reactive”.

B3: 5F5: anti-CD19 antibody, VH SEQ ID NO: 2, VL SEQ ID NO: 4 (antibody, V domains shown)
VH: B2 VH with V100I
VL: B2 VL with G91A, R92S, F93L, G94D, F97L
In the case of B3, the “cross-reactivity with cynomolgus CD19” value (cynomolgus CD19) is reported as “slightly cross-reactive”.

B4: 7F11: anti-CD19 antibody, VH SEQ ID NO: 6, VL SEQ ID NO: 8 (antibody, V domains shown)
VH: B2 VH
VL: B2 VL with R92M, F93W, G94D, S95N
In the case of B4, the “cross-reactivity with cynomolgus CD19” value (cynomolgus CD19) is reported as “slightly cross-reactive”.

B5: 7F1: anti-CD19 antibody, VH SEQ ID NO: 16, VL SEQ ID NO: 18 (antibody, V domains shown)
VH: EVQLVQSGAEVKKPGESLKISCKGSGYSFTSYWIGWVRQMPGKGLEWMGIIYPGDSDTRYSPSFQGQVTISADKSISTAYLQWSSLKASDTAMYYCARGDYWTGFAYWGQGTLVTVSS
VL: QSVLTQPPSVSAAPGQKVTISCSGSSSNIGNNYVSWYQQLPGTAPKLLIYDNNKRPSGIPDRFSGSKSGTSATLGITGLQTGDEADYYCGTWDLGWNSVFGGGTKLTVL
B5 was tested, and the “binding profile Nalm6 versus Raji cells” value [2] was “bind better to Nalm6 than to Raji cells” and the “cross-reactivity with cynomolgus CD19” value (cynomolgus CD19) was “did not bind”.

B6: 10D8: anti-CD19 antibody, VH SEQ ID NO: 20, VL SEQ ID NO: 22 (antibody, V domains shown)
VH: QVQLVQSGAEVKKPGSSVKVSCKASGGTFSSYAISWVRQAPGQGLEWMGGIIPIFGTANYAQKFQGRVTITADESTSTAYMELSSLRSEDTAVYYCARDRGYDYVWGSYRYGAFDIWGQGTLVTVSS
VL: QSALTQPASVSGSPGQSITISCTGTSSDVGGYNYVSWYQQHPGKAPKLMIYEVSNRPSGVSNRFSGSKSGNTASLTISGLQAEDEADYYCSSYDVWVPHMVFGGGTKLTVL
With B6 the “binding profile Nalm6 versus Raji cells” value [2] was “bind better to Nalm6 than to Raji cells” and the “cross-reactivity with cynomolgus CD19” value (cynomolgus CD19) was “did not bind”.
